Data: paper PMC12298629, “New Derivatives of Caracasine Acid with Anti-Leukemic Activity and Limited Effectiveness in Spheroid Cultures” (Pharmaceuticals, 2025)

Experiments:
caspase 3 = assay: Caspase 3 activity in lysed HCT116 cells from 2D and spheroids; type: cell-based, human; settings: 12 h; for Caspase 3 activity, spheroid culture: HCT116 parental spheroids, 25 µM (cisplatin 15 μM); for Caspase 3 activity, 2D culture: HCT116 parental, 25 µM
Method: (§1) The assay was designed to evaluate the impact of various compounds on caspase activity using a standardized quantity of cell protein lysates after 12 h of incubation. The parental line HCT116 served as the basis for these experiments. Three distinct caspases were examined employing the fluorescence assay kits from Calbiochem (San Diego, CA, USA), specifically a fluorometric caspase-8 assay kit and a fluorimetric caspase-3 assay kit. Additionally, the fluorometric kit from Abcam was utilized to assess caspase-9 activity. Due to the variations in protocols for each caspase, separate plates were prepared for each assay, encompassing both two-dimensional (2D) cell cultures and spheroids. The compound concentrations were established at 25 µM, and assays were conducted in quintuplicate following a 12-h incubation period. The cells were harvested from the plates using the standard trypsin-EDTA solution (Merck Sigma Aldrich, Saint Louis, MO, USA), washed, and counted before lysis, as described in each kit. Cell processing adhered to the guidelines provided by the respective companies, and protein concentration was calculated and standardized using the standard BCA assay. Fluorescent readings were captured using the Enspire apparatus (Perkin-Elmer, MA, USA). Positive controls utilized included staurosporine at a concentration of 5 μM and cisplatin at 15 μM. The kits provided their own standards; however, to normalize all the readings between cultures, types, and treatments, the results were expressed as a percentage relative to the positive control, staurosporine, in 2D culture. […] A total of three separate assays were conducted for each caspase.

A549 spheroids = assay: Spheroid viability assay (CellTiter-Glo 3D), A549 spheroids; type: cell-based; settings: 72 h, 100 pM to 50 μM
Method: (§2) Spheroid culture aims to analyze the drug’s effect on complex structures resembling solid tumors. The spheroids were prepared using the specific nonadherent plates for spheroid formation (Nunc Sphera, Thermo Fisher, Waltham, MA, USA) according to the simple protocol outlined by the manufacturer. The cell lines HCT116 parental, HCT116KOTp53, A549, and U2OS were cultured at a density of 2500 cells per well using medium containing 10% fetal calf serum and antibiotics: McCoy’s 5A medium for HCT116, F-12K (Kaighn’s Modified) for A549, and Dulbecco’s Modified Eagle Medium (DMEM). The cells were grown in culture for 48 h as recommended by the manufacturer and as described by Das et al. and Muñoz-Garcia et al..
(§3) The cell viability of the treated spheroids was assessed using the kit CellTiter-Glo 3D (Promega Corporation, Madison, WI, USA). The kit is designed to measure ATP as an indicator of viability, generating a luminescent readout that is more sensitive than colorimetric or fluorescence-based methods. The spheroids were cultivated with compounds at concentrations ranging from 100 pM to 50 μM in triplicate for 72 h, and the luminescence was measured using the Enspire apparatus (PerkinElmer). A standard curve was performed for each analysis as recommended by the manufacturer.

U2OS = assay: Cytotoxic MTS assay, U2OS 2D; type: cell-based; settings: human tumors 2D, 72 h, median of five assays
Source text: (§4) The cancer cell lines used in the cytotoxic assays were acquired from the American Tissue Culture Collection (ATCC) (Manassas, VA, USA) and maintained as described previously. The MRC-5 and BJ human fibroblasts were used as non-tumoral control cells. The (MRC-5 LD and BJ LD) are also human fibroblast cell lines resistant to doxorubicin. […] The Raji and Ramos cell lines correspond to B-cell leukemia. Other cells, such as U2OS, represent a child osteosarcoma, while HCT116 is a colorectal tumor cell line. (HCT116p53^−/−, Horizon Discovery Ltd., Cambridge, UK) is a similar cell line with its p53 gene knocked down, serving as a model of human cancer frequently associated with a poor prognosis. The cells were maintained in Nunc/corning 80 cm^2 plastic tissue culture flasks and cultured in a cell culture medium according to ATCC or Horizon recommendations (McCoy, DMEM/RPMI 1640 with 5 g/L glucose, 2 mM glutamine, 100 U/mL penicillin, […] streptomycin, 10% fetal calf serum, and NaHCO3). The compounds were freshly dissolved in DMSO. The final concentration of DMSO was 0.01% in the cell culture.
(§5) The in vitro cytotoxicity of compounds (1–7) was assessed using the standard 3-(4,5-dimethyl-thiazol-2yl)-5-(3-carboxymethoxyphenyl)-2-(sulfophenyl)-2H-tetrazolium (MTS). The assay was performed at the Institute of Molecular and Translational Medicine using a robotic platform (High-ResBiosolutions, Beverly, MA, USA). Cell suspensions were prepared and diluted according to the specific cell type and the expected target cell density (25,000–35,000 cells/mL, based on cell growth characteristics). An automatic pipettor (30 μL) was used to add cells into 384-well microtiter plates. All tested compounds were dissolved in 100% DMSO, and four-fold dilutions of the intended test concentrations were added in 0.15 μL aliquots at time zero to the microtiter plate wells by the echo acoustic non-contact liquid handler Echo550 (Labcyte, San Jose, CA, USA). The assays were accomplished in technical duplicates and at least three biological replicates. The cells were incubated with the tested compound for 72 h at 37 °C in a 5% CO2 atmosphere with 100% humidity. At the end of the incubation period, cells were assayed using the MTS test. Aliquots (5 μL) of the MTS stock solution were pipetted into each well and incubated for 1–4 h. After this incubation period, the optical density (OD) was measured at 490 nm using an Envision reader (PerkinElmer, Waltham, MA, USA). Tumor cell survival (TCS) was calculated using the following equation: TCS = (OD drug-exposed well/mean OD control wells) × 100%. The IC50 value, representing the concentration of the compound lethal to 50% of the tumor cells, was calculated from the corresponding dose-response curves using Dotmatics software (Updated version 2022, London, UK). After three days of incubation on the cancer cell lines and normal fibroblasts, the […] (IC50) were obtained. Five assays were performed for each cell line. The standard error of the assays was lower than 10%, as assessed by the triplicate assays.

CCRF-CEM = assay: Cytotoxic MTS assay, CCRF-CEM; type: cell-based; settings: human leukemia cell line, 72 h, median of five assays
Source text: as §4, §5

HCT116KO53 = assay: Cytotoxic MTS assay, HCT116 p53 knockout 2D; type: cell-based; settings: 72 h, median of five assays
Source text: as §4, §5

caspase 9 = assay: Caspase 9 activity in lysed HCT116 cells from 2D and spheroids; type: cell-based, human; settings: HCT116 parental spheroids, 25 µM (cisplatin 15 μM), 12 h
Method: as §1

RAJI = assay: Cytotoxic MTS assay, Raji; type: cell-based; settings: human leukemia cell line, 72 h, median of five assays
Source text: as §4, §5

[1] = test system: mixed spheroids of MRC-5 fibroblasts with HCT116 or HCT116 p53 KO cells; assay: Mixed spheroid viability assay; type: cell-based, human; settings: mixed spheroids of fibroblasts and tumor cells
Method: as §3, with “Mixed spheroids were made by mixing MRC-5 fibroblasts with HCT116 or HCT116 p53 KO cells at a ratio of 1:1 (1000 cells/well); the cells were added immediately one after the other, and the formation of spheroids was monitored for 48 hrs. The mixed spheroids of both cell types had similar morphological features. The cell” for “The cell”

MRC-5 = assay: Cytotoxic MTS assay, MRC-5 fibroblasts; type: cell-based; settings: 72 h, median of five assays
Source text: as §4, §5

MRC-5 LD = assay: Cytotoxic MTS assay, MRC-5 LD fibroblasts (doxorubicin-resistant); type: cell-based; settings: 72 h, median of five assays
Source text: as §4, §5

HCT116 par spheroids = assay: Spheroid viability assay (CellTiter-Glo 3D), HCT116 parental spheroids; type: cell-based; settings: 72 h, 100 pM to 50 μM
Method: as §2, §3

K562 = assay: Cytotoxic MTS assay, K562; type: cell-based; settings: 72 h, median of five assays
Source text: as §4, §5

BJ LD = assay: Cytotoxic MTS assay, BJ LD fibroblasts (doxorubicin-resistant); type: cell-based; settings: doxorubicin-resistant human fibroblasts, 72 h, median of five assays
Source text: as §4, §5

A549 = assay: Cytotoxic MTS assay, A549 2D; type: cell-based; settings: 72 h, median of five assays
Source text: as §4, §5

HCT116 par = assay: Cytotoxic MTS assay, HCT116 parental 2D; type: cell-based; settings: 72 h, median of five assays
Source text: as §4, §5

caspase 8 = assay: Caspase 8 activity in lysed HCT116 cells from 2D and spheroids; type: cell-based, human; settings: HCT116 parental spheroids, 25 µM (cisplatin 15 μM), 12 h
Method: as §1

BJ = assay: Cytotoxic MTS assay, BJ fibroblasts; type: cell-based; settings: human fibroblasts, 72 h, median of five assays
Source text: as §4, §5

HCT116KO53 spheroids = assay: Spheroid viability assay (CellTiter-Glo 3D), HCT116 p53 KO spheroids; type: cell-based; settings: 72 h, 100 pM to 50 μM
Method: as §2, §3

U2OS spheroids = assay: Spheroid viability assay (CellTiter-Glo 3D), U2OS spheroids; type: cell-based; settings: human tumors spheroids, 72 h, 100 pM to 50 μM
Method: as §2, §3

RAMOS = assay: Cytotoxic MTS assay, Ramos; type: cell-based; settings: human leukemia cell line, 72 h, median of five assays
Source text: as §4, §5

normal human leukocytes = test system: normal human leukocytes; parameters: method as in PMID 31449809, PMID 35430982; settings: 0.1 nM to 50 μM in 0.01% DMSO; cited from earlier work
[2] = MRC5, doxorubicin-resistant human fibroblasts
[3] = HCT-116, human tumors spheroids

| IC50 (A549 spheroids; A549, human tumors spheroids) [µM] | IC50 (HCT116KO53 spheroids; [3]) [µM] | IC50 (U2OS spheroids; U2OS) [µM] | Structure (SMILES) | Caspase 3 activity, spheroid culture (caspase 3) | Caspase 9 activity, spheroid culture (caspase 9) | Caspase 8 activity, spheroid culture (caspase 8) | Caspase 3 activity, 2D culture (caspase 3) | IC50 (U2OS; U2OS) [µM] | IC50 (CCRF-CEM; CCRF-CEM) [µM] | IC50 (HCT116KO53; HCT-116, human tumors 2D) [µM] | IC50 (RAJI; Raji) [µM] | IC50 (MRC-5; MRC5, human fibroblasts) [µM] | IC50 (MRC-5 LD; [2]) [µM] | IC50 (HCT116 par spheroids; [3]) [µM] | IC50 (K562; K562, human leukemia cell line) [µM] | IC50 (BJ LD; Fibroblast) [µM] | IC50 (A549; A549, human tumors 2D) [µM] | IC50 (HCT116 par; HCT-116, human tumors 2D) [µM] | IC50 (BJ; BJ) [µM] | IC50 (RAMOS; Ramos) [µM] | other results |
| --- | --- | --- | --- | --- | --- | --- | --- | --- | --- | --- | --- | --- | --- | --- | --- | --- | --- | --- | --- | --- | --- |
|  |  |  | N.N.[Cl][Pt][Cl] [Cisplatin, reference compound] | caspase activation was observed | caspase activation was observed | caspase activation was observed |  |  |  |  |  |  |  |  |  |  |  |  |  |  | IC50 (A549 spheroids; human tumors spheroids): 49.8 µM; IC50 (U2OS): 9.56 µM; IC50 (CCRF-CEM): 4.62 µM; IC50 (HCT116KO53; human tumors 2D): 8.34 µM; IC50 (RAJI): 0.68 µM; IC50 [1]: 26.8 µM; IC50 (MRC-5; human fibroblasts): 3.98 µM; IC50 (MRC-5 LD; doxorubicin-resistant human fibroblasts): 23.5 µM; IC50 (HCT116 par spheroids; human tumors spheroids): 15.9 µM; IC50 (K562; human leukemia cell line): 6.98 µM; IC50 (BJ LD): 17.8 µM; IC50 (A549; human tumors 2D): 9.51 µM; IC50 (HCT116 par; human tumors 2D): 12.5 µM; IC50 (BJ): 9.5 µM; IC50 (HCT116KO53 spheroids; human tumors spheroids): 45.7 µM; IC50 (U2OS spheroids): 21.8 µM; IC50 (RAMOS): 0.56 µM |
| > 50 | > 50 | > 50 | C=C1C(=O)C23CCC(C(=C)C)C(C)(CCC(=O)OC4CCCCC4)C2CCC1C3 (stereo not shown) [Compound 3, Caracasine Acid Cyclohexyl Ester] | absence of caspase activity | absence of caspase activity | absence of caspase activity | significant changes | 1.66 | 0.38 | 1.63 | 1.86 | 5.45 | 2.69 | > 50 | 2.21 | 6.5 | 2.69 | 1.59 | 7.38 | 0.78 |  |
| > 50 | > 50 | > 50 | C=C1C(=O)C23CCC(C(=C)C)C(C)(CCC(=O)O)C2CCC1C3 (stereo not shown) [Compound 1, Caracasine Acid] | absence of caspase activity | absence of caspase activity | absence of caspase activity | significant changes | 1.79 | 0.38 | 1.52 | 0.85 | 6.48 | 6.69 | > 50 | 4.77 | 7.04 | 5.98 | 1.73 | 6.88 | 0.62 | Effect on primary leukocytes (normal human leukocytes): no significant effect |
